Holding throughout (experiment): biochemical
What all share (assay type): biochemical

Experiment [1] deals with 363 human kinases (including Aurora A/B/C) (Homo sapiens, UniProt P06239). The note with it: LCK; for remaining activity at 0.5 µM / remaining activity at 0.1 µM: read-out: % Enzyme Activity (relative to DMSO controls); for remaining activity at 0.1 µM: 100 nM.
Excerpt: (§1) However, the Aurora A/B selectivity ratios derived from our in vitro and in vivo data can be compared to prioritize inhibitors.
For experiment [2], the target named is T1, 363 human kinases (including Aurora A/B/C) (Homo sapiens, UniProt P42679).
T1 sequence (P42679 1-507): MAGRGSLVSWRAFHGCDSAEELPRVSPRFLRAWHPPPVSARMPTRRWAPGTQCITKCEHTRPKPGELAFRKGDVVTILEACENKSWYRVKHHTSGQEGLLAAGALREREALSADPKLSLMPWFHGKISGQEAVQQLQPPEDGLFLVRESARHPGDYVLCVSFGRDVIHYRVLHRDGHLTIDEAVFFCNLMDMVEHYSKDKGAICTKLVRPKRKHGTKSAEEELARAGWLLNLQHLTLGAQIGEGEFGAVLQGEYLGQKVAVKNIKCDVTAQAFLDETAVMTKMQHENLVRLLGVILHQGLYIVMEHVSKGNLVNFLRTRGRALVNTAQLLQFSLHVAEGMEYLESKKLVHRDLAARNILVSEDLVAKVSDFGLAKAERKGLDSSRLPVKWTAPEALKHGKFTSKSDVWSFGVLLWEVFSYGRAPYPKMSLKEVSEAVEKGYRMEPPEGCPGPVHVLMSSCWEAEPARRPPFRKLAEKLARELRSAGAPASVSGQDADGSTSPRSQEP
The note with it: CTK/MATK, [ATP] 100 µM; for remaining activity at 0.5 µM / remaining activity at 0.1 µM: read-out: % Enzyme Activity (relative to DMSO controls); for remaining activity at 0.1 µM: 100 nM.
Excerpt: as §1

Experiment [3] addresses T2, 363 human kinases (including Aurora A/B/C) (Homo sapiens, UniProt P46734).
T2 sequence (P46734 1-347): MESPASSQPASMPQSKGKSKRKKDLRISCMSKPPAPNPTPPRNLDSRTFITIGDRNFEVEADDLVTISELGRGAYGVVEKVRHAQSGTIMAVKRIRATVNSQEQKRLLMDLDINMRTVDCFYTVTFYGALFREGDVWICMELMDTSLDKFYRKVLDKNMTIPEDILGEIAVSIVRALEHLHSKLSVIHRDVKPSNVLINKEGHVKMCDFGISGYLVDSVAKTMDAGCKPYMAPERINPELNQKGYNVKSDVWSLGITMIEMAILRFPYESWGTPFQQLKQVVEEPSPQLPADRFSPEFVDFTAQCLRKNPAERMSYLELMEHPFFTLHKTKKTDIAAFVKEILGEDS
The settings on record: MEK3; for remaining activity at 0.5 µM / remaining activity at 0.1 µM: read-out: % Enzyme Activity (relative to DMSO controls); for remaining activity at 0.1 µM: 100 nM.
Excerpt: as §1

Experiment [4] concerns the target 363 human kinases (including Aurora A/B/C) (Homo sapiens, UniProt Q14680). The settings on record: MELK; for remaining activity at 0.5 µM / remaining activity at 0.1 µM: read-out: % Enzyme Activity (relative to DMSO controls); for remaining activity at 0.1 µM: 100 nM.
Excerpt: as §1
The target of experiment [5] is T3, 363 human kinases (including Aurora A/B/C) (Homo sapiens, UniProt Q8TD19).
T3 sequence (Q8TD19 1-979): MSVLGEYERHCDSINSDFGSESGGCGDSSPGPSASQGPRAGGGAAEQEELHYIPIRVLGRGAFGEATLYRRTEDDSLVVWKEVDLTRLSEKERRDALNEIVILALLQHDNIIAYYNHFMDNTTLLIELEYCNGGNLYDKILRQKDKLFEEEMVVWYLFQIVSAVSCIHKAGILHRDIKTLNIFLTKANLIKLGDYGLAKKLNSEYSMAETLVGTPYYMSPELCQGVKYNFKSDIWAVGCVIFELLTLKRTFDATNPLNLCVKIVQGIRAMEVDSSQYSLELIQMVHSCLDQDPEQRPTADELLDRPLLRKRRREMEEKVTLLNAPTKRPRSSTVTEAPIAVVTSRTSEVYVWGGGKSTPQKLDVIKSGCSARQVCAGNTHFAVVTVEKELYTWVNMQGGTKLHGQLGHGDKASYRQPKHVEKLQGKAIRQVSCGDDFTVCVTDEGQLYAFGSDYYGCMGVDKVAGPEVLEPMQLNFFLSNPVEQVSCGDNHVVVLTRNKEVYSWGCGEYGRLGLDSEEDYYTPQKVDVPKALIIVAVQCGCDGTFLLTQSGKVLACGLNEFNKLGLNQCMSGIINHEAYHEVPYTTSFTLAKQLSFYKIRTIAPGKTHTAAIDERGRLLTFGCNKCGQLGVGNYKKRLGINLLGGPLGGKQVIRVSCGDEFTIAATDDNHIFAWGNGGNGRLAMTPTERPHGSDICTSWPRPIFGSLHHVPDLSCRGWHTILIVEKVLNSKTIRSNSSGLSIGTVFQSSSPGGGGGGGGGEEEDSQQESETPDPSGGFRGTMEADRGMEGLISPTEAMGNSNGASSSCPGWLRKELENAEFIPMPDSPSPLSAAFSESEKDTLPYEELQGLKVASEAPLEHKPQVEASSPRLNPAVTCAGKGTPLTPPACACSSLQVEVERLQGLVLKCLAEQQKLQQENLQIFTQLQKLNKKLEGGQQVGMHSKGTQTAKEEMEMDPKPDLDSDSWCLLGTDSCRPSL
The note with it: NEK9; for remaining activity at 0.5 µM / remaining activity at 0.1 µM: read-out: % Enzyme Activity (relative to DMSO controls); for remaining activity at 0.1 µM: 100 nM.
Excerpt: as §1

Experiment [6] deals with 363 human kinases (including Aurora A/B/C) (Homo sapiens, UniProt Q9HC98). The settings on record: NEK6; for remaining activity at 0.5 µM / remaining activity at 0.1 µM: read-out: % Enzyme Activity (relative to DMSO controls); for remaining activity at 0.1 µM: 100 nM.
363 human kinases (including Aurora A/B/C) (Homo sapiens, UniProt Q9HC98), sequence (Q9HC98 whole entry): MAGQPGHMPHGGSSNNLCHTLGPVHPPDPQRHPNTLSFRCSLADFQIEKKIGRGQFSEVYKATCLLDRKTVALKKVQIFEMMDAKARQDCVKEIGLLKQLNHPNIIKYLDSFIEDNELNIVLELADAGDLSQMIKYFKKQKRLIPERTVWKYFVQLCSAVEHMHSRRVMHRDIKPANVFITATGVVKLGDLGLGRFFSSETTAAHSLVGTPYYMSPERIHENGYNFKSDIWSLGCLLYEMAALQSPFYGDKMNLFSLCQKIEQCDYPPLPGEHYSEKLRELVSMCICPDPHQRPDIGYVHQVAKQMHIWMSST
Excerpt: as §1
Experiment [7] addresses 363 human kinases (including Aurora A/B/C) (Homo sapiens, UniProt Q9Y463). The note with it: DYRK1B, [ATP] 20 µM; for remaining activity at 0.5 µM / remaining activity at 0.1 µM: read-out: % Enzyme Activity (relative to DMSO controls); for remaining activity at 0.1 µM: 100 nM.
Excerpt: as §1

The source of these data is paper PMC4685510, “A Cell Biologist’s Field Guide to Aurora Kinase Inhibitors” (Frontiers in Oncology, 2015).

Molecules are shown by their SMILES.

363 human kinases (including Aurora A/B/C) (Homo sapiens, UniProt Q14680), sequence (Q14680 whole entry): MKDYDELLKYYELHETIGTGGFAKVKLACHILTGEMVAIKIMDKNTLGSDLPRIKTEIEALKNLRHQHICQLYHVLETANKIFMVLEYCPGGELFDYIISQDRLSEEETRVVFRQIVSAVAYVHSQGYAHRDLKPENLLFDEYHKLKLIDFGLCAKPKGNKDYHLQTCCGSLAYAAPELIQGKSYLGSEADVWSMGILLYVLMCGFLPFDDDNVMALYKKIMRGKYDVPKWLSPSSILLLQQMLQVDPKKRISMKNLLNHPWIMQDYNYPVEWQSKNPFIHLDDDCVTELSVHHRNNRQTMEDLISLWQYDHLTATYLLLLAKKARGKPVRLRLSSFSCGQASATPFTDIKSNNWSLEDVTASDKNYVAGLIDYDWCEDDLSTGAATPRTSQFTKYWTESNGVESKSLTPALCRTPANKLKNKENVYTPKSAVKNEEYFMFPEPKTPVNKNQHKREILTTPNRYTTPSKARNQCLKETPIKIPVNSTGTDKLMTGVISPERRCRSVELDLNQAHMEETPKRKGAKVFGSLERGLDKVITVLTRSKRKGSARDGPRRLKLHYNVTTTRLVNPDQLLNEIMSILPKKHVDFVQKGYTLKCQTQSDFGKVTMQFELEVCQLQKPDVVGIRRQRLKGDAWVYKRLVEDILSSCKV
363 human kinases (including Aurora A/B/C) (Homo sapiens, UniProt P06239), sequence (P06239 whole entry): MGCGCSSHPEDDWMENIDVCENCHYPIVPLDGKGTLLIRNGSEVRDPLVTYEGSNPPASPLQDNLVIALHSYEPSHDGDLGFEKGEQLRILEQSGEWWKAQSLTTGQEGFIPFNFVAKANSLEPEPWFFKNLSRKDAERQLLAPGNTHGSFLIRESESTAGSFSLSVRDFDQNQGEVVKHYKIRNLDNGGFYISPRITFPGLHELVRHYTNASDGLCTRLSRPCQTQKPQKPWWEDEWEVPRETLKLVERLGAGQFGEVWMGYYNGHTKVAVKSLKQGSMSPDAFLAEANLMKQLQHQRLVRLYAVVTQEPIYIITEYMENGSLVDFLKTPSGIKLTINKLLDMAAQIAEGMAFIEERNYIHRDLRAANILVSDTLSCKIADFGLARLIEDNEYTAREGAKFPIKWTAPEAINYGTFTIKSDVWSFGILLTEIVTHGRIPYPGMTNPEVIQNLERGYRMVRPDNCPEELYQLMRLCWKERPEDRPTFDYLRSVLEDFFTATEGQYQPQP
363 human kinases (including Aurora A/B/C) (Homo sapiens, UniProt Q9Y463), sequence (Q9Y463 whole entry): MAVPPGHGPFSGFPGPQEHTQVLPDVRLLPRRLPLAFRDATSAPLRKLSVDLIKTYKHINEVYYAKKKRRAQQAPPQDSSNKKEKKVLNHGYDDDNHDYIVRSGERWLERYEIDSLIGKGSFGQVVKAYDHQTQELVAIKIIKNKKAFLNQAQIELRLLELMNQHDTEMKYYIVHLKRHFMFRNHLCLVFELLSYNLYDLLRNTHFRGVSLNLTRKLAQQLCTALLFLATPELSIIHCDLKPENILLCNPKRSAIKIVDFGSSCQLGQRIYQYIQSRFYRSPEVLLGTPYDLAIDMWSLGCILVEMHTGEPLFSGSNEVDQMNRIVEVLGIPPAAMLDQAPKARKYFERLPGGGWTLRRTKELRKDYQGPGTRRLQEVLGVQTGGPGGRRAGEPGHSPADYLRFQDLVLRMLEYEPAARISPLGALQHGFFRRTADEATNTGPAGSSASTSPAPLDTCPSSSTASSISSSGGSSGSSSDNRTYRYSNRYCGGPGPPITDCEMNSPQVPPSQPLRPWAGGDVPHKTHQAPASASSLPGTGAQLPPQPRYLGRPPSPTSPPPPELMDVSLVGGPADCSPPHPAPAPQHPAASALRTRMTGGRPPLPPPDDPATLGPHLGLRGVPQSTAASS

As to `O=C(c1cccc(Cl)c1F)N1CCN(Cc2cccc(Nc3nccs3)n2)CC1` [MK-8745], the “% Enzyme Activity (relative to DMSO controls)” value was 50.49% in experiment [1] (500 nM); 86.22% in experiment [2] (500 nM); 72.05% in experiment [3] (500 nM); 93.77% in experiment [4] (500 nM); 95.13% in experiment [5] (500 nM); 99.72% in experiment [6] (500 nM). Moreover, in experiment [7] (500 nM), the “% Enzyme Activity (relative to DMSO controls)” value is 94.80%. For the same compound, the remaining activity at 0.5 µM was found to be 53% in experiment [1] (500 nM); 86.8% in experiment [2] (500 nM); 75.7% in experiment [3] (500 nM); 95.9% in experiment [4] (500 nM); 96.6% in experiment [5] (500 nM); 102% in experiment [6] (500 nM). In experiment [7] (500 nM), the remaining activity at 0.5 µM came out at 95.3%.

Regarding `CCn1cc(-c2ccnc3[nH]c(-c4cccc(CN(C)C)c4)cc23)c(-c2ccc(NC(=O)N(C)C)cc2)n1` [GSK1070916], the remaining activity at 0.1 µM in experiment [1] was determined as 72.8%; in experiment [2] it was 82.4%; in experiment [3], 105%; in experiment [4], 95.7%; in experiment [5], 83.8%; in experiment [6] it was 109%. Also, in experiment [7], the remaining activity at 0.1 µM came out at 99.6%.

`O=C(O)[C@]1(Cc2cccc(Nc3nccs3)n2)CC[C@@H](Oc2cccc(Cl)c2F)CC1` [MK-5108]: the remaining activity at 0.1 µM in experiment [1] amounted to 62.3%; in experiment [2], 103%; in experiment [3] it was 89.7%; in experiment [4] it was 109%; in experiment [5], 95.2%; in experiment [6] it was 87%. Moreover, in experiment [7], the remaining activity at 0.1 µM was 91.7%. The remaining activity at 0.5 µM in experiment [1] (500 nM) came out at 16.6%; in experiment [2] (500 nM) it was 129%; in experiment [3] (500 nM), 99.7%; in experiment [4] (500 nM) it was 112%; in experiment [5] (500 nM) it was 60.7%; in experiment [6] (500 nM), 115%. In addition, the remaining activity at 0.5 µM in experiment [7] (500 nM) turned out to be 68.3%.
